The values below come from article PMC7486443, “Generation of Phenothiazine with Potent Anti-TLK1 Activity for Prostate Cancer Therapy” (iScience, 2020).

Some targets named below: EGFR(S752-I759del) (Homo sapiens, UniProt P00533, DEL752-759); MAP3K2 (Homo sapiens, UniProt Q9Y2U5); FLT3(R834Q) (Homo sapiens, UniProt P36888, R834Q); AKT2 (Homo sapiens, UniProt P31751); PRKCQ (Homo sapiens, UniProt Q04759); RET(M918T) (Homo sapiens, UniProt P07949, M918T); STK35 (Homo sapiens, UniProt Q8TDR2); AKT3 (Homo sapiens, UniProt Q9Y243); TXK (Homo sapiens, UniProt P42681); FGFR3(G697C) (Homo sapiens, UniProt P22607, G697C); BRAF(V600E) (Homo sapiens, UniProt P15056, V600E); MYLK2 (Homo sapiens, UniProt Q9H1R3).

Test in all cases: biochemical
What all share (set-up): DiscoverX KINOMEscan scanMAX competition binding panel, single concentration, percent of control; remaining binding: dose or concentration left out as unconfirmed
Holding throughout (settings): KINOMEscan binding, percent of control; read-out: Table S4_SCANMAX REPORT - related to Fig. 1 / Percent Control

The target of another experiment is T1, PRKR (Homo sapiens, UniProt P19525).
T1 construct: gene EIF2AK2

The target of the next experiment is T2, S6K1 (Homo sapiens, UniProt P23443).
T2 construct: gene RPS6KB1

The target in the next experiment is T3, MST3 (Homo sapiens, UniProt Q9Y6E0).
T3 construct: gene STK24

The target of a further experiment is T4, YANK3 (Homo sapiens, UniProt Q86UX6).
T4 construct: gene STK32C

Another experiment concerns the target T5, LOK (Homo sapiens, UniProt O94804).
T5 construct: gene STK10

A further experiment deals with T6, MRCKA (Homo sapiens, UniProt Q5VT25).
T6 construct: gene CDC42BPA

EGFR(S752-I759del), sequence (P00533 with tags, fused parts or gaps DEL752-759): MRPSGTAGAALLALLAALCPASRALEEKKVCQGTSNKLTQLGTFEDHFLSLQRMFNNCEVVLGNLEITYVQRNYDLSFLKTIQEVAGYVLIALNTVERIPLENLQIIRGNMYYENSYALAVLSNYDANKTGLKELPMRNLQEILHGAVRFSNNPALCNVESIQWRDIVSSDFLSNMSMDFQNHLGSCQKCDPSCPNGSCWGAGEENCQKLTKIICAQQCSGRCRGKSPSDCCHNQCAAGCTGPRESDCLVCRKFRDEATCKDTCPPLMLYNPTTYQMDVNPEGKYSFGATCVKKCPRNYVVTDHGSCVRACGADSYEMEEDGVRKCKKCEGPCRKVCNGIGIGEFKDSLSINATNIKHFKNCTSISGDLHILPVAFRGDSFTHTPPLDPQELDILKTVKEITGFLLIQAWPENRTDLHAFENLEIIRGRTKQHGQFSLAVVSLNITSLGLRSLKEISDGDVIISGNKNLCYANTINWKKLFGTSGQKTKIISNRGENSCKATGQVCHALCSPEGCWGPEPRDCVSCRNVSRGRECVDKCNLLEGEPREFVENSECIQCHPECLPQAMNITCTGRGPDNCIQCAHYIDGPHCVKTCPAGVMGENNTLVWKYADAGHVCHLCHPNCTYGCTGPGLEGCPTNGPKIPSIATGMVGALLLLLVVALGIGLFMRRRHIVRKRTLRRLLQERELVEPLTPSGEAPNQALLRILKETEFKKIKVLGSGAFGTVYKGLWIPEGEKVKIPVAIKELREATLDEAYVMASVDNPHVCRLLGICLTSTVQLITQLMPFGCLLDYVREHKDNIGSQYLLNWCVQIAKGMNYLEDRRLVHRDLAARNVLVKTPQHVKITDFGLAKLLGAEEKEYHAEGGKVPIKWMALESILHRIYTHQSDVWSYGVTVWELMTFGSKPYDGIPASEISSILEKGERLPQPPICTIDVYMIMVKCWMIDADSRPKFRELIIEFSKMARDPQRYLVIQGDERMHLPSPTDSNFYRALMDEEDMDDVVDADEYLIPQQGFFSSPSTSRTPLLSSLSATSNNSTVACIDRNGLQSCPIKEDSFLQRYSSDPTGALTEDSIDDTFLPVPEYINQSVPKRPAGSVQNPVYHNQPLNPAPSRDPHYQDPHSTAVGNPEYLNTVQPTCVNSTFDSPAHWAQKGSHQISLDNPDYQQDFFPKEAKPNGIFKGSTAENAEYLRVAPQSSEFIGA
BRAF(V600E), sequence (P15056 whole entry V600E): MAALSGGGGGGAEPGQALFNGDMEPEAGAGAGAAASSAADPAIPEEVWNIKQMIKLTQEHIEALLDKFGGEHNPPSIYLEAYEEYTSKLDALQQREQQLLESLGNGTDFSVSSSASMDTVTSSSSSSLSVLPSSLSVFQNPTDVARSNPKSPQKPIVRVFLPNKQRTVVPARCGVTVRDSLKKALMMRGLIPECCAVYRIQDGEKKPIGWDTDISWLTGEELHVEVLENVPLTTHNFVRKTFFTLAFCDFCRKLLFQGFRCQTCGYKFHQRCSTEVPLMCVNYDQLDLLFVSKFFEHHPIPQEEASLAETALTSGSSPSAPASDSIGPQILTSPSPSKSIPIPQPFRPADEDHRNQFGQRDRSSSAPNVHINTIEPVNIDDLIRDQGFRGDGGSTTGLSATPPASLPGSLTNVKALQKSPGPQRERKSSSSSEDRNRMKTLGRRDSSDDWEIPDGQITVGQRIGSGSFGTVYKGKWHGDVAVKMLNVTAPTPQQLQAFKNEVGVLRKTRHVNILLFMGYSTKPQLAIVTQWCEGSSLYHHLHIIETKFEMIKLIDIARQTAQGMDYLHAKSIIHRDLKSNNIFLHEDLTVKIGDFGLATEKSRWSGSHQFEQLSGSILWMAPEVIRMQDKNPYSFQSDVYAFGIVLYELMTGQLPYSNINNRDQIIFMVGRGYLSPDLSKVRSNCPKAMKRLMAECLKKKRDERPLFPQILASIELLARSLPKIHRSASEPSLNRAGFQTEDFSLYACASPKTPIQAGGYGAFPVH
T1 sequence (P19525 whole entry): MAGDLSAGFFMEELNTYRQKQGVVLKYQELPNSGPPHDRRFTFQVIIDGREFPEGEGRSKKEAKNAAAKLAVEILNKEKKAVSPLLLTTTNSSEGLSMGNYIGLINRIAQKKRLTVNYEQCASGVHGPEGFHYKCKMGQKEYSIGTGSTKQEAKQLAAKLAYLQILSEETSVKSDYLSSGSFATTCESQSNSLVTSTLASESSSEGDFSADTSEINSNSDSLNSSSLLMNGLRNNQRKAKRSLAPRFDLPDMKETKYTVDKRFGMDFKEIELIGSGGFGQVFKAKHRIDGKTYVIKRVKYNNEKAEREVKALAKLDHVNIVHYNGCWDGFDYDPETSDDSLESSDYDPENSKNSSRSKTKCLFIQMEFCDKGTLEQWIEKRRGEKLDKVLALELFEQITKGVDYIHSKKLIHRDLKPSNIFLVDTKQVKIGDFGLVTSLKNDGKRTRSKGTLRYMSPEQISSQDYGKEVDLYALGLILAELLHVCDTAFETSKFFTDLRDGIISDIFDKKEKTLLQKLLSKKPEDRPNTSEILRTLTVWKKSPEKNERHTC
MYLK2, sequence (Q9H1R3 whole entry): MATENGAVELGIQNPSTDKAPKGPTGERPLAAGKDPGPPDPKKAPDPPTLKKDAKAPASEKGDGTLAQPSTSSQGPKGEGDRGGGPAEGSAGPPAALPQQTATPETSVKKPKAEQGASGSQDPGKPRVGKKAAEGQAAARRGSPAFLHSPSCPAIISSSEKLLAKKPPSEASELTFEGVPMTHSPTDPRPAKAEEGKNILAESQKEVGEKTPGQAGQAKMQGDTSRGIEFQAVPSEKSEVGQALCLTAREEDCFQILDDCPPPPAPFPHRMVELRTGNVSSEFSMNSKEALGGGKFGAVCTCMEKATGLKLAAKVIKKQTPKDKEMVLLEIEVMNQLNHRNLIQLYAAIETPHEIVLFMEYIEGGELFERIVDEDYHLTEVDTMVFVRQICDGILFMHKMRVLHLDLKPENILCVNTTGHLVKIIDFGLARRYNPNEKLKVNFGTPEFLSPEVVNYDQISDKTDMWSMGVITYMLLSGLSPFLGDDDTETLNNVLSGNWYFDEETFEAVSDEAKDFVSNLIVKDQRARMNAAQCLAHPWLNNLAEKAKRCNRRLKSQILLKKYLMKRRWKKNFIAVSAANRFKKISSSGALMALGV
T4 sequence (Q86UX6 whole entry): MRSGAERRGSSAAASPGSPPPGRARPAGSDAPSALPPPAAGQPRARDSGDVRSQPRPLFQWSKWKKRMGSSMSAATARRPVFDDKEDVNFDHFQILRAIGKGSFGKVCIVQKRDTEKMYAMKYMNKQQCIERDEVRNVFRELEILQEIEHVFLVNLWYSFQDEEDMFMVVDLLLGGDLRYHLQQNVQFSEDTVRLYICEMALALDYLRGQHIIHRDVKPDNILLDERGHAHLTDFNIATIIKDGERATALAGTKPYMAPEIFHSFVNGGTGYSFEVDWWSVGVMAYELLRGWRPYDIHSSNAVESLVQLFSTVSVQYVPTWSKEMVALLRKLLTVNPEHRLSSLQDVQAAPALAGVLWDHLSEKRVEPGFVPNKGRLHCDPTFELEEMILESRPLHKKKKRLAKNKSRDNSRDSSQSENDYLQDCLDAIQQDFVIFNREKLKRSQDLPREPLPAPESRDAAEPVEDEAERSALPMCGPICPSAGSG
FGFR3(G697C), sequence (P22607 whole entry G697C): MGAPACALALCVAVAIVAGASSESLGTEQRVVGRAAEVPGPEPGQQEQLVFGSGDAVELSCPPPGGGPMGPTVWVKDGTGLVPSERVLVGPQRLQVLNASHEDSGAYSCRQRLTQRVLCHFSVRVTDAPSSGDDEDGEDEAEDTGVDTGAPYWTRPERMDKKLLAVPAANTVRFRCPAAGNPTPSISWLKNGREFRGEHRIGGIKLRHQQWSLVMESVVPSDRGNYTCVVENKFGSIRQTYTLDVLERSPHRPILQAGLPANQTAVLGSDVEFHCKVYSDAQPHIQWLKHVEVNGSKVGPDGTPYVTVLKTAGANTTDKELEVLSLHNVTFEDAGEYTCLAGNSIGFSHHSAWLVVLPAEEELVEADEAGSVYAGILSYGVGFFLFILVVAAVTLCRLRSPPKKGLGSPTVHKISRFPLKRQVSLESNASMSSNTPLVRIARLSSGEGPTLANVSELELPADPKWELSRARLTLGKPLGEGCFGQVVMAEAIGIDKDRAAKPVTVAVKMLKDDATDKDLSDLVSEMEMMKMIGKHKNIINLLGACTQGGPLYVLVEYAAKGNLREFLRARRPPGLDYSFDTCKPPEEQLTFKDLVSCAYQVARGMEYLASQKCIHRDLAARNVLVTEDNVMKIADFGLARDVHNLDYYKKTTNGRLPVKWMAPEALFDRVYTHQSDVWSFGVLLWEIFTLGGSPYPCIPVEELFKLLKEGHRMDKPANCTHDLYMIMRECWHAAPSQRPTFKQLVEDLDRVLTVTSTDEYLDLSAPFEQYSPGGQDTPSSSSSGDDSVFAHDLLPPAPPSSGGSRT
T2 sequence (P23443 whole entry): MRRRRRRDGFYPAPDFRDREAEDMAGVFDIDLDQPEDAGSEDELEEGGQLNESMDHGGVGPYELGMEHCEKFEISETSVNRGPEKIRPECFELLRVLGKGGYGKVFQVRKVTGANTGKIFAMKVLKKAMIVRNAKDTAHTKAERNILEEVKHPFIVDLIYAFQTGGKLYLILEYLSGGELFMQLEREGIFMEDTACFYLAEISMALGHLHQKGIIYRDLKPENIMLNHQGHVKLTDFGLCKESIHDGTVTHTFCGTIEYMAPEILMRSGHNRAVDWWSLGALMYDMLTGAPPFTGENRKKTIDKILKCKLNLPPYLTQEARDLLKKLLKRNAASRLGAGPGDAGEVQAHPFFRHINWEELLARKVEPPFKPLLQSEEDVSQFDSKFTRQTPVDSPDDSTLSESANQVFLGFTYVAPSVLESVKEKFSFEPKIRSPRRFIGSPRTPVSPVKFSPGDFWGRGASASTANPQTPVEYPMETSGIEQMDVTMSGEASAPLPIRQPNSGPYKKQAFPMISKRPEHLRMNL

As to `c1ccc2c(c1)Sc1ccccc1N2CCN1CCOCC1` [J54], the remaining binding at EGFR(S752-I759del) amounted to 94%; on MAP3K2 it was 100%; on FLT3(R834Q), 100%; at AKT2, 100%; at PRKCQ it was 96%; on RET(M918T) it was 97%. Besides, the remaining binding at PRKR was 93%; at S6K1, 100%; on STK35, 82%; on AKT3, 84%; on TXK, 99%; at FGFR3(G697C) it was 100%. Moreover, the remaining binding at MST3 was determined as 100%; on BRAF(V600E) it was 100%; on MYLK2, 74%; on YANK3, 100%; on LOK it was 100%; at MRCKA, 99%.
